Laboratory results published in patent publication US12551451B2, “Compositions and methods for delivering molecules” (SunVax mRNA Therapeutics Inc., priority 2023, dated 2026).

Assays:
[1] = LNP Characteristics (size, PDI, encapsulation efficiency) of LNPs formulated with novel ionizable lipids; format: physicochemical; details: LNP formulated with the ionizable lipid, DOPE, Cholesterol, DMG-PEG2000
Experimental: LNPs formulated using the novel ionizable lipids of the disclosure or control ionizable lipids MC3 and SM-102 were synthesized by mixing the lipid components of the LNP in ethanol at a predetermined molar ratio (ionizable lipid/DOPE/Cholesterol/DMG-PEG2000=30/15/50/1.5) to prepare an organic phase. Sa-mRNA encoding firefly luciferase (LUC) or green fluorescent protein (GFP) was diluted in 50 mM citrate buffer (pH 4.5, Fisher) to prepare an aqueous phase. The sa-mRNA was stored at −80° C. and was thawed on ice prior to use. The ethanol and aqueous phases were mixed at a 1:3 ratio by pipette with the N/P=4.2/1. The resultant LNPs were purified by ultrafiltration (100,000 cut-off, MilliporeSigma™ Amicon™ Ultra-15 Centrifugal Filter Units) at 4° C. prior to transfection into a cell, such as a T-cell.
LNPs formulated using novel ionizable lipids of the disclosure were synthesized using the procedure described in Example 2 and characterized. Table 4 below show the properties of each LNP formulated using a novel ionizable lipid of the disclosure.

[2] = tested on: endogenous CD4, CD8, CD4/CD8 T cells and NK cells; assay: In vivo transfection of T and NK cells with LNP-encapsulated modified mRNA encoding eGFP, FACS of splenocytes; parameters: species or system Balb/c mice; details: LNP delivering 10 mg modified mRNA encoding eGFP, intravenously, 18 hours after injection
Experimental: (§1) LNP formulated using the ionizable lipids of the disclosure were used to deliver modified RNA encoding reporter genes to determine the transfection efficiency of exemplary ionizable lipids of the disclosure in immune cells and organs. Injections of mice with LNP-encapsulated modified mRNA encoding either Luciferases or eGFP were performed. In experiments with payloads encoding Luciferase mRNA, spleen expression was detected, which is an important organ with abundant pan T cells. In experiments with payloads encoding eGFP mRNA, transfection of primary T cells in vivo by FACS analysis was performed.
Balb/c mice were intravenously injected with of 10 mg modified mRNA encoding eGFP. The modified mRNA encoding eGFP were delivered using LNPs formulated with P1D4 and P161F6 ionizable lipids in groups of 5 mice. A control group of 5 mice were injected with PBS. Balb/c mice were injected intravenously. The mice were sacrificed 18 hours after injection. Single cell splenocytes were prepared for FACS staining.

[3] = tested on: spleen; assay: In vivo Luciferase expression after injection of LNP-encapsulated modified mRNA, IVIS imaging; details: LNP delivering 10 mg modified mRNA encoding Luciferase; 18 hours post injection; Balb/c mice
Experimental: as §1
Balb/c mice were intraperitoneally injected with 10 mg modified mRNA encoding Luciferase, encapsulated by LNPs formulated with P1D4, P51C12, P161F6 ionizable lipids. To detect luminescence, the mice were subsequently injected with 6 mg Luciferin, a substrate of Luciferase and imaged by IVIS five minutes later.

Row | SMILES | Avg. Encapsulation Efficiency (EE) % [1] [%] | Avg. PDI [1] | Avg. Size [1] [nm] | transfection of endogenous CD4, CD8, CD4/CD8 T cells and NK cells [2] | transfection of the spleen (Luciferase signal) [3]
1 | CCCCCCCCCCCCCC(=O)N(CC(CCCCCCCC)CCCCCCCCCC)C(C(=O)NCC(=O)OCC)C1CCN(CC)CC1 (stereo not shown) [Lipid P1D4, Ethyl (2-(1-ethylpiperidin-4-yl)-2-(N-(2-octyldodecyl)tetradecanamido)acetyl)glycinate] | 92.7 | 0.17 | 170.4 | could transfect endogenous CD4, CD8, CD4/CD8 T cells as well as NK cell | effectively transfected the spleen
2 | CCCCCCCCCCCCOC(=O)CCC(=O)N(C(CCCCCCCCC)CCCCCCCCC)C(C(=O)NC1CCCCCC1)C1CCN(CC)CC1 (stereo not shown) [Lipid P153C3, dodecyl 4-((2-(cycloheptylamino)-1-(1-ethylpiperidin-4-yl)-2-oxoethyl)(nonadecan-10-yl)amino)-4-oxobutanoate] | 86.8 | 0.07 | 86.8 | – | –
3 | CCCCCCCCCCCCOC(=O)CCC(=O)N(C(CCCCCCCCCCC)CCCCCCCCCCC)C(C(=O)NC1CCCCCC1)C1CCN(CC)CC1 (stereo not shown) [Lipid P153C5, dodecyl 4-((2-(cycloheptylamino)-1-(1-ethylpiperidin-4-yl)-2-oxoethyl)(tricosan-12-yl)amino)-4-oxobutanoate] | 62.0 | 0.14 | 169 | – | –
4 | CCCCCCCCCCCCOC(=O)CCC(=O)N(CC(CCCCCCCC)CCCCCCCCCC)C(C(=O)NC1CCCCCC1)C1CCCN(CC)C1 (stereo not shown) [Lipid P159C10, dodecyl 4-((2-(cycloheptylamino)-1-(1-ethylpiperidin-3-yl)-2-oxoethyl)(2-octyldodecyl)amino)-4-oxobutanoate] | 95.8 | 0.13 | 174 | – | –
5 | CCCCCCCCCCCCC(CCCCCCCCCC)CN(C(=O)CCC(C)C1CCC2C3CC(O)C4CC(O)CCC4(C)C3CCC12C)C(C(=O)NC12CC3CC(CC(C3)C1)C2)C1CCN(CC)CC1 (stereo not shown) [Lipid P161F6, N-(2-(((1s,3s)-adamantan-1-yl)amino)-1-(1-ethylpiperidin-4-yl)-2-oxoethyl)-N-(2-decyltetradecyl)-4-(3,6-dihydroxy-10,13-dimethylhexadecahydro-1H-cyclopenta[a]phenanthren-17-yl)pentanamide] | 87.1 | 0.18 | 215 | could transfect endogenous CD4, CD8, CD4/CD8 T cells as well as NK cell | effectively transfected the spleen
6 | CCCCCCCCCCC(CCCCCCCC)CN(C(=O)CCC(C)C1CCC2C3CC(O)C4CC(O)CCC4(C)C3CCC12C)C(CC1CCN(C)CC1)C(=O)NC12CC3CC(CC(C3)C1)C2 (stereo not shown) [Lipid P161F10, N-(1-(((1s,3s)-adamantan-1-yl)amino)-3-(1-methylpiperidin-4-yl)-1-oxopropan-2-yl)-4-(3,6-dihydroxy-10,13-dimethylhexadecahydro-1H-cyclopenta[a]phenanthren-17-yl)-N-(2-octyldodecyl)pentanamide] | 87.9 | 0.19 | 225 | – | –
